Experimental data taken from US11285156B2, “Substituted piperazines as KRAS G12C inhibitors” (Amgen Inc., priority 2018, dated 2022).
Like-named read-outs stand apart in the source and are kept apart here.

Experiments:
[1] = tested on: Phosphorylation of ERK1/2 in A549 cells; test: Phospho-ERK1/2 MSD assay in A549 cells; format: cell-based; settings: read-out: p-ERK IC50 (2 h, A549; μM), 2 h compound treatment, A549 cells, EGF stimulated
Procedure, shortened: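 Readout: MSD phospho-ERK1/2 signal after compound (2 or 4 h) and 10 min EGF stimulation at 10 ng/mL.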

[2] = molecular target: GDP-bound KRAS protein (aa 1-169), containing both G12C and C118A amino acid substitutions (Homo sapiens (Human), UniProt P01116, C118A/G12C); test: Coupled nucleotide exchange assay (SOS-mediated nucleotide exchange, AlphaScreen); format: biochemical; settings: 5 min compound pre-incubation; for IC50: read-out: Coupled exchange IC50 (5 min; μM)
Chain of GDP-bound KRAS protein (aa 1-169), containing both G12C and C118A amino acid substitutions (P01116 other isoform, or with tags, fused parts or gaps G12C/C118A): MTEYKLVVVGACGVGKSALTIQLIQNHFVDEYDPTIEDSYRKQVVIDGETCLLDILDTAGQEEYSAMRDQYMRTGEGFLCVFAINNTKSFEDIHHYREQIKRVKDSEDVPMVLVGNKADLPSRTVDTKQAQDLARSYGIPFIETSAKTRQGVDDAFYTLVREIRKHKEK

[3] = tested on: Phosphorylation of ERK1/2 in MIA PaCa-2 cells; test: Phospho-ERK1/2 MSD assay in MIA PaCa-2 cells; format: cell-based; settings: read-out: p-ERK IC50 (2 h, MiaPaCa-2; μM), 2 h compound treatment, MIA PaCa-2 cells, EGF stimulated
Procedure, shortened: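 Phospho-ERK1/2 measured by MSD electrochemiluminescence kit in RIPA lysates of MIA PaCa-2 cells. Cells were treated with compound titrations for 2 or 4 h at 37 °C, 5% CO2, followed by a 10 min pulse of 10 ng/mL EGF.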

Compound	IC50 ([1]; Homo sapiens, A549, 2 h) [µM]	IC50 [2] [µM]	IC50 ([3]; Homo sapiens, MIA PaCa-2, 2 h) [µM]	IC50 [1] [µM]	IC50 [3] [µM]	Coupled exchange IC50 (5 min; μM) [2] [µM]
C=CC(=O)N1C[C@H](C)N(c2nc(=O)n(-c3c(C(C)C)ncnc3C(C)C)c3nc(-c4ccccc4C(C)C)c(Cl)cc23)C[C@H]1C [Example 100-4, 6-Chloro-1-(4,6-diisopropylpyrimidin-5-yl)-4-[(2S,5R)-2,5-dimethyl-4-prop-2-enoyl-piperazin-1-yl]-7-(2-isopropylphenyl) pyrido[2,3-d]pyrimidin-2-one]	> 7.5	0.006	0.106	–	–	–
C=CC(=O)N1C[C@H](C)N(c2nc(=O)n(-c3c(C)ccnc3C(C)C)c3nc(-c4ccccc4)c(Cl)cc23)C[C@H]1C (atropisomer, axis not shown; (M)) [Example 92-42, (M)-6-Chloro-4-[(2S,5R)-2,5-dimethyl-4-prop-2-enoyl-piperazin-1-yl]-1-(2-isopropyl-4-methyl-3-pyridyl)-7-phenyl-pyrido[2,3-d]pyrimidin-2-one]	> 7.5	0.117	0.08	–	–	–
C=CC(=O)N1C[C@H](C)N(c2nc(=O)n(-c3c(C)ccnc3C(C)C)c3nc(-c4ccccc4F)c(Cl)nc23)C[C@H]1C (single isomer, unassigned) [Example 106-6-2]	> 7.5	0.059	0.301	–	–	–
C=CC(=O)N1C[C@H](C)N(c2nc(=O)n(-c3c(C)ccnc3C(C)C)c3nc(-c4ccccc4C)c(F)cc23)C[C@H]1C (atropisomer, axis not shown; (M)) [Example 94-8, (M)-4-[(2S,5R)-2,5-Dimethyl-4-prop-2-enoyl-piperazin-1-yl]-6-fluoro-1-(2-isopropyl-4-methyl-3-pyridyl)-7-(o-tolyl)pyrido[2,3-d]pyrimidin-2-one]	> 7.5	0.255	0.131	–	–	–
C=CC(=O)N1C[C@H](C)N(c2nc(=O)n(-c3c(CN(C)C)ncnc3C(C)C)c3nc(-c4ccccc4F)c(Cl)cc23)C[C@H]1C (single isomer, unassigned) [Example 80-18-2]	> 7.5	0.11	0.044	–	–	–
C#Cc1ccccc1-c1nc2c(cc1Cl)c(N1C[C@@H](C)N(C(=O)C=C)C[C@@H]1C)nc(=O)n2-c1c(C)ccnc1C(C)C (atropisomer, axis not shown; (M)) [Example 92-47, (M)-6-Chloro-4-[(2S,5R)-2,5-dimethyl-4-prop-2-enoyl-piperazin-1-yl]-7-(2-ethynylphenyl)-1-(2-isopropyl-4-methyl-3-pyridyl)pyrido [2,3-d]pyrimidin-2-one]	> 7.5	0.057	0.049	–	–	–
C=CC(=O)N1C[C@H](C)N(c2nc(=O)n(-c3c(C)ccnc3C(C)C)c3nc(-c4ccccc4S(N)(=O)=O)c(Cl)cc23)C[C@H]1C (atropisomer, axis not shown; (M)) [Example 92-33, (M)-2-[6-Chloro-4-[(2S,5R)-2,5-dimethyl-4-prop-2-enoyl-piperazin-1-yl]-1-(2-isopropyl-4-methyl-3-pyridyl)-2-oxo-pyrido[2,3-d]pyrimidin-7-yl] benzenesul-fonamide]	> 7.5	0.113	0.216	–	–	–
C=CC(=O)N1C[C@H](C)N(c2nc(=O)n(-c3c(C(C)C)ncnc3C3CC3)c3nc(-c4ccccc4C)c(Cl)cc23)C[C@H]1C (single isomer, unassigned) [Example 108-2-1]	–	0.035	–	> 7.5	0.046	–
C=CC(=O)N1C[C@H](C)N(c2nc(=O)n(-c3c(C)ccnc3C(C)C)c3nc(-c4ccccc4C(C)C)c(F)cc23)C[C@H]1C (atropisomer, axis not shown; (M)) [Example 94-1, (M)-4-[(2S,5R)-2,5-Dimethyl-4-prop-2-enoyl-piperazin-1-yl]-6-fluoro-1-(2-isopropyl-4-methyl-3-pyridyl)-7-(2-isopropylphenyl)pyrido[2,3-d]pyrimidin-2-one]	–	0.077	–	> 7.5	0.107	–
C=CC(=O)N1C[C@H](C)N(c2nc(=O)n(-c3c(C(C)C)nc(CN4CCOCC4)nc3C(C)C)c3nc(-c4ccccc4F)c(Cl)cc23)C[C@H]1C [Example 162, 6-Chloro-1-[4,6-diisopropyl-2-(morpholinomethyl)pyrimidin-5-yl]-4-[(2S,5R)-2,5-dimethyl-4-prop-2-enoyl-piperazin-1-yl]-7-(2-fluorophenyl)pyrido[2,3-d]pyrimidin-2-one]	> 7.5	0.133	0.078	–	–	–
C=CC(=O)N1C[C@H](C)N(c2nc(=O)n3c4nc(c(Cl)cc24)-c2ccccc2C/C=C\Cc2cccc(C(C)C)c2-3)C[C@H]1C (single isomer, unassigned) [Example 146-2-2]	5.48	0.061	0.096	–	–	–
C=CC(=O)N1C[C@H](C)N(c2nc(=O)n(-c3c(C)cc(CC)nc3C(C)C)c3nc(-c4ccccc4F)c(Cl)cc23)C[C@H]1C (single isomer, unassigned) [Example 166-1]	> 7.5	–	0.118	–	–	0.049
C=CC(=O)N1C[C@H](C)N(c2nc(=O)n(-c3c(C)ccnc3C(C)C)c3nc(-c4ccccc4NS(C)(=O)=O)c(Cl)cc23)C[C@H]1C (atropisomer, axis not shown; (M)) [Example 92-32, (M)-N-[2-[6-Chloro-4-[(2S,5R)-2,5-dimethyl-4-prop-2-enoyl-piperazin-1-yl]-1-(2-isopropyl-4-methyl-3-pyridyl)-2-oxo-pyrido[2,3-d]pyrimidin-7-yl]phenyl] methanesul-fonamide]	> 7.5	0.075	0.129	–	–	–
C=CC(=O)N1C[C@H](C)N(c2nc(=O)n(-c3c(C)cc(CN(C)C)nc3C(C)C)c3nc(-c4ccccc4F)c(Cl)cc23)C[C@H]1C [Example 121-1, 4-((2S,5R)-4-Acryloyl-2,5-dimethylpiperazin-1-yl)-6-chloro-1-(6-((dimethylamino)methyl)-2-isopropyl-4-methylpyridin-3-yl)-7-(2-fluorophenyl)pyrido[2,3-d]pyrimidin-2(1H)-one]	> 7.5	0.195	0.086	–	–	–
C=CC(=O)N1C[C@H](C)N(c2nc(=O)n(-c3c(N(CC)CC)ccnc3C(C)C)c3nc(-c4ccccc4C(C)C)c(Cl)cc23)C[C@H]1C [Example 103-5, 6-Chloro-1-[4-(diethylamino)-2-isopropyl-3-pyridyl]-4-[(2S,5R)-2,5-dimethyl-4-prop-2-enoyl-piperazin-1-yl]-7-(2-isopropylphenyl) pyrido[2,3-d]pyrimidin-2-one]	> 7.5	0.2	0.507	–	–	–
C=CC(=O)N1C[C@H](C)N(c2nc(=O)n(-c3c(C(C)C)ccnc3C(C)C)c3nc(-c4c(O)cccc4F)c(Cl)cc23)C[C@H]1C (single isomer, unassigned) [Example 124-4]	> 7.5	0.022	0.016	–	–	–
C=CC(=O)N1C[C@H](C)N(c2nc(=O)n(-c3c(C(C)C)nc(C=C)nc3C(C)C)c3nc(-c4ccccc4F)c(Cl)cc23)C[C@H]1C [Example 159, 4-((2S,5R)-4-Acryloyl-2,5-dimethylpiperazin-1-yl)-6-chloro-1-(4,6-diisopropyl-2-vinylpyrimidin-5-yl)-7-(2-fluorophenyl)pyrido[2,3-d]pyrimidin-2(1H)-one]	3.04	0.046	0.119	–	–	–
C=CC(=O)N1C[C@H](C)N(c2nc(=O)n(-c3c(N)ncnc3C(C)C)c3nc(-c4ccccc4F)c(Cl)cc23)C[C@H]1C [Example 189, 4-((2S,5R)-4-Acryloyl-2,5-dimethylpiperazin-1-yl)-1-(4-amino-6-isopropylpyrimidin-5-yl)-6-chloro-7-(2-fluorophenyl)pyrido[2,3-d]pyrimidin-2(1H)-one]	> 7.5	0.158	0.209	–	–	–
C=CC(=O)N1C[C@H](C)N(c2nc(=O)n(-c3c(C)ccnc3C(C)C)c3nc(-c4cccc(Cl)c4F)c(Cl)cc23)C[C@H]1C (atropisomer, axis not shown; (M)) [Example 92-46, (M)-6-Chloro-7-(3-chloro-2-fluoro-phenyl)-4-[(2S,5R)-2,5-dimethyl-4-prop-2-enoyl-piperazin-1-yl]-1-(2-isopropyl-4-methyl-3-pyridyl)pyrido [2,3-d]pyrimidin-2-one]	> 7.5	0.023	0.032	–	–	–
C=CC(=O)N1C[C@H](C)N(c2nc(=O)n(-c3c(N(C)C)ccnc3C(C)C)c3nc(-c4c(F)cccc4NC(=O)CC)c(Cl)cc23)C[C@H]1C (single isomer, unassigned) [Example 122-2-2]	> 7.5	0.088	–	–	0.63	–
C=CC(=O)N1CCN(c2nc(=O)n(-c3c(C)ccnc3C(C)C)c3nc(-c4ccccc4F)c(Cl)cc23)C2CC21 (atropisomer, axis not shown; (M)) [Example 222, (M)-4-(5-Acryloyl-2,5-diazabicyclo[4.1.0]heptan-2-yl)-6-chloro-7-(2-fluorophenyl)-1-(2-isopropyl-4-methylpyridin-3-yl)pyrido[2,3-d]pyrimidin-2(1H)-one]	–	0.705	–	2.71	0.057	–
